Series [1] has as its system Nocardia asteroides. The series can be described thus: Anti-bacterial activity, zone diameter. It is filed as cell-based. To be noted: for zone of inhibition at 50 µg/disc: read-out: Zone diameter given by 50 μg of drug. From the text:
(§1) The anti-bacterial activity of the compound HC274 according to the present invention was also compared with the activity of known anti-bacterial agents with the following results: […]

In series [2] the test system is Escherichia coli. Briefly: Anti-bacterial activity, zone diameter. The class given is cell-based. To be noted: for zone of inhibition at 50 µg/disc: read-out: Zone diameter given by 50 μg of drug.
Description: as §1

For series [3], the system named is Proteus vulgaris. Briefly: Anti-bacterial activity, zone diameter. Conditions: for zone of inhibition at 50 µg/disc: read-out: Zone diameter given by 50 μg of drug. It is filed as cell-based.
Description: as §1

In series [4] the test system is Staphylococcus aureus. Briefly: Anti-bacterial activity, zone diameter. It is filed as cell-based. Conditions: for zone of inhibition at 50 µg/disc: read-out: Zone diameter given by 50 μg of drug.
Description: as §1

Series [5] deals with Klebsiella pneumoniac. The series can be described thus: Anti-bacterial activity, zone diameter. Conditions: for zone of inhibition at 50 µg/disc: read-out: Zone diameter given by 50 μg of drug. It is filed as cell-based.
Description: as §1

Series [6] concerns pseudomonas aeruginosa. Briefly: Anti-bacterial activity, zone diameter. It is filed as cell-based. Conditions: for zone of inhibition at 50 µg/disc: read-out: Zone diameter given by 50 μg of drug.
Description: as §1

For series [7], the system named is Streptococcus pyrogenes. Briefly: Anti-bacterial activity, zone diameter. It is filed as cell-based. Conditions: for zone of inhibition at 50 µg/disc: read-out: Zone diameter given by 50 μg of drug.
Description: as §1

In series [8] the test system is Nocardia brasiliensis. Briefly: Anti-bacterial activity, zone diameter. Conditions: for zone of inhibition at 50 µg/disc: read-out: Zone diameter given by 50 μg of drug. The class given is cell-based.
Description: as §1

Series [9] concerns platelet aggregation. Briefly: Platelet aggregation after oral administration in the retired male breeder rat model. Conditions: read-out: ED50 (3 hr. post oral administration). The class given is in vivo. From the text: HC 501 has also been evaluated for platelet aggregation 3 hrs. after oral administration in the retired male breeder rat model (R. N. Saunders et al, Lab. Anim. Sci., 1977, 27, 757).

The test system of series [10] is platelet thromboxane generation. Briefly: Inhibition of platelet thromboxane generation (TxB2, collagen-stimulated human platelet rich plasma). The class given is cell-based. Conditions: 10 min, collagen 8 μg/ml, human PRP, 10 min. incubation, 37° C., read-out: Activity IC50 (50% inhibition of TxB2 generation). The method, then: The compounds used according to the invention as anti-thrombotics were tested by the following method for their ability to inhibit platelet thromboxane generation.
Human venous blood was collected from healthy male donors, who had denied any medication in the previous 14 days. Nine volumes of blood were mixed with one volume of 3.24% trisodium citrate. The citrated blood was centrifuged at 160 g for 10 mins. at 22° C. to obtain platelet rich plasma (PRP). The platelets were then counted on a Coulter counter, and the platelet count was adjusted to 200,000 per μl with plasma.
The PRP was then dispensed as aliquots into micro-Eppendorf tubes, maintained at 37° C. in a dry bath. The compounds dissolved either in saline, ethanol, or DMSO were added in duplicate to the PRP aliquots to produce final concentrations of 0.3, 3 and 30 μg/ml. When ethanol and DMSO were used as the vehicle, triplicate controls containing the same percentage of vehicle as the test compounds were made. The final concentration or organic solvent was never more than 0.1%, which in previous experiments had no effect on TxB2 generation.
Following a 10 min. incubation with test compounds or vehicle, collagen was added to produce a final concentration of 8 μg/ml. The tubes were then whirly-mixed for 15 seconds and replaced in the dry bath for a further 10 minutes, controls received saline instead of collagen. The reaction was then stopped by rapid centrifugation, 15,000 g for 3 mins. The plasma was removed and frozen at -29° C. until assayed.
Briefly, 100 μl aliquots, in tricine buffered saline+0.8% gelatin (pH 8.0) of the following were incubated together for 1 hour at 37° C.: thromboxane Tx B2 (plasma extract, spiked plasma extract or standards 20 to 20,000 pg/ml), ^3 H--TxB2 (approximately 15,000 dpm) and anti-TxB2 antiserum (0.5 μg/100 μl). The free and protein bound ^3 H--TxB2 were separated by ammonium sulphate precipitation followed by centrifugation. 300 μl of the supernatant was added to an aqueous scintillation fluid, and the radioactivity present was counted in a liquid scintillation counter. The binding of ^3 H--TxB2 in the absence of added TxB2 was approximately 55%. The least amount of TxB2 to be detected accurately in the plasma was 0.08 ng/ml. Cross reactivity with other prostaglandins is less than 0.005% except PGD2 which is 1%.
Thus plasma samples were assayed to give a rough approximation of TxB2 content. The plasma was then appropriately diluted and assayed in duplicate to give accurate values.
The amount of TxB2 generated by the collagen was calculated by subtracting mean values obtained for the saline stimulated platelets from the mean values obtained from the collagen stimulated platelets. Then the amount of TxB2 generated in the presence of each concentration of compound was expressed as a % control and dose response curves were then constructed to determine the concentration of compound which produced a 50% inhibition.

The test system of series [11] is C. perfringens (ATCC 13124). The series can be described thus: microbe, parasite or virus in culture. The class given is cell-based. Conditions: Clostridium perfringens, ATCC13124, 24 h.
For series [12], the system named is C. sporogenes ATCC 19404. The series can be described thus: Antianaerobic activity, MIC by standard broth dilution method (Table II). It is filed as cell-based. Conditions: Clostridium sporogenes, ATCC19404, 24 h, read-out: Minimal Inhibitory Concentration (MIC). The method, then:
The activity of the compounds identified in the Table II below was tested for antianaerobic activity against one strain of Bacteroides fragilis, one strain of Bacteroides uniformis, one strain of Clostridium sporogenes and one strain of Trichomonas vaginalis as the test organism. The methods used involved determining the minimum inhibitory concentration by the standard broth dilution method. The values for metronidazole (2-methyl-5-nitro-1H-imidazole-1-ethanol) are given above for reference purposes. For convenience the compounds are referred to by an internal reference number (an HC number) and this is correlated with the number of the Example wherein its production is described.

Series [13] has as its system B. fragilis ATCC 23745. The series is described as above. The class given is cell-based. To be noted: Bacteroides fragilis, ATCC23745, 24 h, read-out: Minimal Inhibitory Concentration (MIC). The method, then:
(§2) The activity of the compounds identified in the Table II below was tested for antianaerobic activity against one strain of Bacteroides fragilis, one strain of Bacteroides uniformis, one strain of Clostridium sporogenes and one strain of Trichomonas vaginalis as the test organism. The methods used involved determining the minimum inhibitory concentration by the standard broth dilution method. […] For convenience the compounds are referred to by an internal reference number (an HC number) and this is correlated with the number of the Example wherein its production is described.

The test system of series [14] is B. uniformis ATCC 8492. Described as above. It is filed as cell-based. Conditions: Bacteroides uniformis, ATCC8492, 24 h, read-out: Minimal Inhibitory Concentration (MIC). The method, then: as §2
The test system of series [15] is T. vaginalis ATCC 30001. Described as above. The class given is cell-based. Conditions: Trichomonas vaginalis, ATCC30001, 24 h, read-out: Minimal Inhibitory Concentration (MIC). The method, then:
as §2

Series [16] is described as follows: in vivo. To be noted: male mice, 7 day.
The subject of series [17] is candida albicans. The series can be described thus: Oral treatment: recovery of viable candida albicans from the kidneys of infected mice. It is filed as in vivo. From the text:
Effect of oral treatment with HC274, HC316, HC390, HC415 and Ketoconazole on the recovery of viable candida albicans from the kidneys of infected mice.

Setting [18] is: oral, 3 hr, retired male breeder rat.

Structures can show the parent of a compound that is named as a salt. Where two headings read alike, the source gives them in different places.

Regarding `CC1(C)S[C@@H]2[C@H](NC(=O)[C@H](N)c3ccccc3)C(=O)N2[C@H]1C(=O)O` [AMP, Ampicillin], the zone of inhibition at 50 µg/disc amounted to 38 mm in series [1] (50 μg); 17 mm in series [2] (50 μg); 28 mm in [3] (50 μg); 21 mm in [4] (50 μg); 11 mm in series [5] (50 μg, Klebsiella pneumoniac); 0 mm in series [6] (50 μg, pseudomonas aeruginosa). For the same compound, the zone of inhibition at 50 µg/disc came out at 25 mm in [7] (50 μg, Streptococcus pyrogenes) and 38 mm in [8] (50 μg).
For the compound Polymyxin [PM], the “Zone diameter given by 50 μg of drug” value in series [1] (50 μg) is 11 MM; in [2] (50 μg) it was 10 MM; in series [3] (50 μg), 12 MM; in series [4] (50 μg), 7 MM; in [5] (50 μg, Klebsiella pneumoniac) it was 10 MM; in series [6] (50 μg, pseudomonas aeruginosa), 10 MM. The “Zone diameter given by 50 μg of drug” value in [7] (50 μg, Streptococcus pyrogenes) worked out at 0 MM; in series [8] (50 μg), 0 MM.
For `Clc1ccc(/C(Cn2ccnc2)=N/Nc2ccccc2Cl)cc1` [HC 501, (Z)-1-(4-chlorophenyl)-2-(1H-imidazol-1-yl)ethanone,2-chlorophenylhydrazone, hydrochloride], the ED50 in series [9] (setting [18]) was found to be 0.003 mg/kg. Also, the IC50 in [10] is < 780 nM.
In the case of `CC(=O)Oc1ccccc1C(=O)O` [Aspirin, 2(Acetyloxy)benzoic acid], the ED50 in [9] (Rattus norvegicus, po, 3 h) was 7.7 mg/kg.
Consider `OCCN(CCO)c1nc(N2CCCCC2)c2nc(N(CCO)CCO)nc(N3CCCCC3)c2n1` [Dipyridamide, 2,2',2",2"',[(4,8Di-1-piperidinyl-pyrimido]5,4d[pyrimidine2,6-diyl)dinitrlo] tetrakisethanol], for which the ED50 in series [9] (setting [18]) came out at 6.8 mg/kg.
Regarding `CCn1cc(C(=O)O)c(=O)c2ccc(C)nc21` [NA, Nalidixic Acid], the zone of inhibition at 50 µg/disc in [1] is 0 mm; in [2], 18 mm; in series [3], 25 mm; in series [4], 9 mm; in [5] (Klebsiella) it was 21 mm; in series [6] (Pseudomonas aeruginosa), 7 mm. Moreover, the zone of inhibition at 50 µg/disc in series [7] (Streptococcus) stood at 0 mm; in [8], 7 mm.
In the case of `Clc1ccc(/C(Cn2ccnc2)=N/Nc2c(Cl)cccc2Cl)s1` [HC390, (E)-1-(5-chlorothienyl-2-yl)-2-(1H-imidazol-1-yl)ethanone, 2,6-dichlorophenylhydrazone, hydrochloride], the MIC in series [11] was determined as 3.1 µg/mL; in series [12] (Test 1), 2.5 µg/mL; in series [12] (Test 2), 5 µg/mL; in series [12] (Test 3), 7.5 µg/mL; in series [13] (Test 1), 5 µg/mL; in series [13] (Test 2), 2.5 µg/mL. Further, the MIC in [13] (Test 3) is 2.5 µg/mL; in [14] (Test 1) it was 2.5 µg/mL; in [14] (Test 2) it was 2.5 µg/mL; in series [14] (Test 3) it was 2.5 µg/mL; in series [15] (Test 1) it was > 50 µg/mL; in series [15] (Test 2) it was > 50 µg/mL. The MIC in [15] (Test 3) is > 50 µg/mL. For the same compound, the LD50 at 168 h in series [16] (mouse, in vivo, ip, read-out: LD50) was 610 mg/kg. In addition, in [16] (p.o.), the LD12.5 is > 1500 mg/kg. In addition, the “Recovery of C.albicans (as percentage of control)” value in series [17] (5 mg/kg) is given as 57.3 percentage of control; in series [17] (20 mg/kg), 41.1 percentage of control.
Regarding `Cl.Clc1ccc(NN=C(Cn2ccnc2)c2ccccc2Cl)c(Cl)c1` [HC316, 1-(2-Chlorophenyl)-2-(1H-imidazol-1-yl)ethanone, 2,4-dichlorophenylhydrazone, hydrochloride], the MIC in series [11] was 0.8 µg/mL; in series [12] (Test 1), 1 µg/mL; in series [12] (Test 2), 2.5 µg/mL; in series [12] (Test 3), 2.5 µg/mL; in [13] (Test 1), 2.5 µg/mL; in series [13] (Test 2), 2.5 µg/mL. For the same compound, the MIC in series [13] (Test 3) was 2.5 µg/mL; in [14] (Test 1), 2.5 µg/mL; in [14] (Test 2), 2.5 µg/mL; in [14] (Test 3) it was 2.5 µg/mL; in series [15] (Test 1), 50 µg/mL; in [15] (Test 2), 50 µg/mL. Also, in series [15] (Test 3), the MIC came out at 50 µg/mL. Moreover, the figures for the “Recovery of C.albicans (as percentage of control)” value in [17] (5 mg/kg) and in series [17] (20 mg/kg) were 56.2 percentage of control and 46.5 percentage of control, respectively.
For `O=C1C(CC[S+]([O-])c2ccccc2)C(=O)N(c2ccccc2)N1c1ccccc1` (stereo not shown) [Sulfinpyrazone], in series [9] (setting [18]), the ED50 stood at 4.1 mg/kg.

Broadly, the LD50 is the dose expected to kill half of the subjects tested.
